One compound from ChEMBL document CHEMBL1142810, “Discovery of a potent and selective 5-ht5A receptor antagonist by high-throughput chemistry” (Bioorg Med Chem Lett, 2005) can be followed below.

A short description of series [1]: Bioavailability in guinea pig at a dose of 3 mg/kg upon subcutaneous administration. The class given is ADME, organism-based, Cavia porcellus. To be noted: in vivo, sc.
Series [2] is described as follows: Half life in guinea pig at a dose of 3 mg/kg upon oral administration. To be noted: in vivo. It is filed as ADME, organism-based, Cavia porcellus. Set-up: dose 3 mg/kg, route oral.
Series [3] in a line: Half life in guinea pig at a dose of 3 mg/kg upon subcutaneous administration. The note with it: in vivo, sc. It is filed as ADME, organism-based, Cavia porcellus. Set-up: dose 3 mg/kg, route subcutaneous.
The target in series [4] is Sodium-dependent serotonin transporter (Homo sapiens, UniProt P31645). As to the kind of experiment: Binding affinity towards human serotonin transporter expressed in LLCPK cells using the radioligand [3H]citalopram. The class given is cell-based.
Series [5] in a line: Peak blood concentration in guinea pig at a dose of 3 mg/kg upon oral administration. It is filed as ADME, organism-based, Cavia porcellus. Set-up: dose 3 mg/kg, route oral.
Series [6] is described as follows: Volume of distribution in guinea pig at a dose of 1 mg/kg upon intravenous administration. It is filed as ADME, organism-based, Cavia porcellus. Set-up: dose 1 mg/kg, route intravenous. The note with it: in vivo, read-out: Vdss.
Series [7] in a line: Half life in guinea pig at a dose of 1 mg/kg upon intravenous administration. It is filed as ADME, organism-based, Cavia porcellus. Set-up: dose 1 mg/kg, route intravenous. To be noted: in vivo.
Series [8] in a line: Bioavailability in guinea pig at a dose of 3 mg/kg upon oral administration. The class given is ADME, organism-based, Cavia porcellus. The note with it: in vivo.
Series [9] is described as follows: Peak blood concentration in guinea pig at a dose of 3 mg/kg upon subcutaneous administration. To be noted: sc. It is filed as ADME, organism-based, Cavia porcellus. Set-up: dose 3 mg/kg, route subcutaneous.
The nature of series [10]: Blood clearance in guinea pig at a dose of 1 mg/kg upon intravenous administration. It is filed as ADME, organism-based, Cavia porcellus. Set-up: dose 1 mg/kg, route intravenous.

Sequence of Sodium-dependent serotonin transporter (P31645 whole entry): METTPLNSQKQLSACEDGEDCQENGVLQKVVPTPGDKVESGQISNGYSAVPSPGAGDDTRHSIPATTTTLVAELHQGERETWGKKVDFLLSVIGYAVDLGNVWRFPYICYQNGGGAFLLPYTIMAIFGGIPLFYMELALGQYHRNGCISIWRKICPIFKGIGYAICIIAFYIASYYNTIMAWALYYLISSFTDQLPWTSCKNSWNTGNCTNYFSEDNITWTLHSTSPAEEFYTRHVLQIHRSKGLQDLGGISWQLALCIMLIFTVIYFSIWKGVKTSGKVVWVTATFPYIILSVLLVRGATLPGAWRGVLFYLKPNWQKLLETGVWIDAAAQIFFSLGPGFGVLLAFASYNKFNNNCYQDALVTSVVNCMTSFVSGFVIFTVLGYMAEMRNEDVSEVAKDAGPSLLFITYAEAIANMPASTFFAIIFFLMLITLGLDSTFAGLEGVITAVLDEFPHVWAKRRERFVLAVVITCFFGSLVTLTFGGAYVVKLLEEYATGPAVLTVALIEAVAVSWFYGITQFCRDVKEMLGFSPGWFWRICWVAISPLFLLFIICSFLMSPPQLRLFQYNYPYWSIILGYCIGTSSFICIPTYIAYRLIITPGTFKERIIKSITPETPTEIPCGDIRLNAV

A word on the bioavailability: it is dose-corrected exposure relative to a reference, in per cent. Read a low bioavailability as poor availability. For orientation: half-life means how long it takes for the measured level to halve. In general, Ki refers to a dissociation constant, usually derived from enzyme kinetics or from competition with a known ligand. A high value points to weaker binding. Broadly, the Cmax is the highest concentration seen after dosing. As usually defined, the clearance is a measure of how efficiently the substance is removed, as volume per time. Read a high clearance as a high capacity for elimination. For `CN(C)CCN(Cc1ccc(-c2ccc(CNCCc3ccccc3)cc2)cc1)C(=O)CCC1CCCC1.Cl.Cl`, the results for the bioavailability in [1] and in series [8] were 63% and 4%, respectively. The half-life in series [2] was 234 min; in series [3], 132 min; in series [7], 210 min. In series [4], this compound gave an inhibitory constant (Ki) of 25.1 nM. Further, the Cmax amounted to 20 ng/mL in series [5] and 388 ng/mL in [9]. Moreover, the Vd in series [6] was determined as 6.1 L/kg. The clearance in series [10] came to 22 mL/min/kg.
